Data on eleven compounds can be found in US10676485B2, “Macrocyclic MCL-1 inhibitors and methods of use” (AbbVie Inc., priority 2017, dated 2020).

One assay concerns the target GST-MCL-1 (Homo sapiens (Human), UniProt Q07820). As to the kind of experiment: TR-FRET MCL-1 binding assay (competition with probe F-Bak). The method, boiled down: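 Compounds as 11 three-fold dilutions from 25 μM with GST-MCL-1, F-Bak probe and Tb-anti-His antibody, 2 h at room temperature. TR-FRET at 340 nm excitation, 520/525 nm (F-Bak) and 495/510 nm (Tb) emission. Run without human serum and with 10% HS.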
For orientation: Time-resolved FRET reads energy transfer from a long-lived donor to a nearby acceptor.

Assay [1] relates to AMO-1 human multiple myeloma tumor cell line. Nature of the assay: AMO-1 cell viability assay (CellTiter-Glo). It counts as cell-based. The settings on record: AMO1, read-out: AMO-1 Viability IC50 (μM), 10% FBS, 24 hours of compound treatment. In general terms: ATP-based viability assays read luminescence as a measure of living cells.
Assay [2] concerns NCI-H929 human multiple myeloma tumor cell line. Nature of the assay: NCI-H929 cell viability assay (CellTiter-Glo). The class given is cell-based. Conditions: NCI-H929, read-out: H929 Viability IC50 (μM), 10% FBS, 24 hours of compound treatment.
Procedure: In one exemplary set of conditions, NCI-H929 or AMO-1 (ATCC. Manassas, Va.) were plated 4.000 cells per well in 384-well tissue culture plates (Corning. Corning, N.Y.) in a total volume of 25 μL RPMI tissue culture medium supplemented with 10% fetal bovine serum (Sigma-Aldrich, St. Louis, Mo.) and treated with a 3-fold serial dilution of the compounds of interest with a Labcyte Echo from a final concentration of 10 μM to 0.0005 μM. Each concentration was tested in duplicate at least 3 independent times. A luminescent signal proportional to the number of viable cells following 24 hours of compound treatment was determined using the CellTiter-Glo® Luminescent Cell Viability Assay according to the manufacturer's recommendations (Promega Corp., Madison, Wis.). The plates were read in a Perkin Elmer Envision using a Luminescence protocol. To generate dose response curves the data is normalized to percent viability by setting the averages of the staurosporine (10 uM) and DMSO only control wells to 0% and (00)% viability respectively. The IC50 values for the compounds are generated by fitting the normalized data with Accelrys Assay Explorer 3.3 to a sigmoidal curve model using linear regression.
The mark [3] stands for this setting: read-out: MCL-1 Binding Ki (nM, 10% HS), in the presence of 10% HS.
Setting [4] is: without HS, read-out: MCL-1 Binding Ki.

Like-named read-outs stand apart in the source and are kept apart here.

In general, Ki refers to a dissociation constant, usually derived from enzyme kinetics or from competition with a known ligand. In general, IC50 refers to the point on the concentration scale where inhibition reaches its midpoint.

GST-MCL-1, sequence (Q07820 whole entry): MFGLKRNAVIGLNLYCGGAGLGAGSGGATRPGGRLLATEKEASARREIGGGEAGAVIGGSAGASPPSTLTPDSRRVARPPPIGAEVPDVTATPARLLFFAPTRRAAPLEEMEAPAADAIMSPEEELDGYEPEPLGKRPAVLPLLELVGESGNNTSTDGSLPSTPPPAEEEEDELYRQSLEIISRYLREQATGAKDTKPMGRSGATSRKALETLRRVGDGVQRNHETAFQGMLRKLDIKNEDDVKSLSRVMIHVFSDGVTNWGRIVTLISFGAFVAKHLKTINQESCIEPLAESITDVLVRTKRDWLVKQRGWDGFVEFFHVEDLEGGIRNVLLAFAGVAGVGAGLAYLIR

In the case of `Cc1c(Cl)c2c(Cl)c(C)c1-c1c(-c3ccc(F)cc3)sc3ncnc(c13)O[C@@H](C(=O)O)Cc1cc(ccc1OCc1ccnc(C3=CC[C@@](F)(COC[C@@H]4COCCO4)CC3)n1)OC[C@@H](CN1CCN(C)CC1)O2` [Example 42, (7R,16R)-19,23-dichloro-10-({2-[(4R)-4-({[(2S)-1,4-dioxan-2-yl]methoxy}methyl)-4-fluorocyclohex-1-en-1-yl]pyrimidin-4-yl}methoxy)-1-(4-fluorophenyl)-20,22-dimethyl-16-[(4-methylpiperazin-1-yl)methyl]-7,8,15,16-tetrahydro-18,21-etheno-13,9-(metheno)-6,14,17-trioxa-2-thia-3,5-diazacyclononadeca[1,2,3-cd]indene-7-carboxylic acid], the Ki at GST-MCL-1 (setting [3]) came out at 0.24 nM; at GST-MCL-1 (setting [4]), 0.018 nM. Also, the IC50 in assay [1] came to 0.404 nM; in assay [2] it was 0.000356 µM.
As for `Cc1c(Cl)c2c(Cl)c(C)c1-c1c(-c3ccc(F)cc3)sc3ncnc(c13)O[C@@H](C(=O)O)Cc1cc(ccc1OCc1ccnc(N3CCO[C@@H](COCC4COCCO4)C3)n1)OC[C@@H](CN1CCN(C)CC1)O2` (stereo partly drawn) [Example 20, (7R,16R)-19,23-dichloro-10-({2-[(2R)-2-{[(1,4-dioxan-2-yl)methoxy]methyl}morpholin-4-yl]pyrimidin-4-yl}methoxy)-1-(4-fluorophenyl)-20,22-dimethyl-16-[(4-methylpiperazin-1-yl)methyl]-7,8,15,16-tetrahydro-18,21-etheno-13,9-(metheno)-6,14,17-trioxa-2-thia-3,5-diazacyclononadeca[1,2,3-cd]indene-7-carboxylic acid], the Ki at GST-MCL-1 (setting [3]) came out at 0.47 nM; on GST-MCL-1 (setting [4]) it was 0.058 nM. Also, the IC50 in assay [1] is 0.286 nM; in assay [2], 0.000513 µM.
The matching figures for `Cc1c(Cl)c2c(Cl)c(C)c1-c1c(-c3ccc(F)cc3)sc3ncnc(c13)O[C@@H](C(=O)O)Cc1cc(ccc1OCc1nccc(-c3ccc(OC[C@H]4COCCO4)cc3)n1)OC[C@@H](CN1CCN(C)CC1)O2` [Example 23, (7R,16R)-19,23-dichloro-10-{[4-(4-{[(2R)-1,4-dioxan-2-yl]methoxy}phenyl)pyrimidin-2-yl]methoxy}-1-(4-fluorophenyl)-20,22-dimethyl-16-[(4-methylpiperazin-1-yl)methyl]-7,8,15,16-tetrahydro-18,21-etheno-13,9-(metheno)-6,14,17-trioxa-2-thia-3,5-diazacyclononadeca[1,2,3-cd]indene-7-carboxylic acid]: 41 nM, 4.98 nM, 3.15 nM and 0.00849 µM.
The matching figures for `Cc1c(Cl)c2c(Cl)c(C)c1-c1c(-c3ccc(F)cc3)sc3ncnc(c13)O[C@@H](C(=O)O)Cc1cc(ccc1OCc1ccnc(-c3cccc(OC[C@H]4COCCO4)c3)n1)OC[C@@H](CN1CCN(C)CC1)O2` [Example 21, (7R,16R)-19,23-dichloro-10-{[2-(3-{[(2R)-1,4-dioxan-2-yl]methoxy}phenyl)pyrimidin-4-yl]methoxy}-1-(4-fluorophenyl)-20,22-dimethyl-16-[(4-methylpiperazin-1-yl)methyl]-7,8,15,16-tetrahydro-18,21-etheno-13,9-(metheno)-6,14,17-trioxa-2-thia-3,5-diazacyclononadeca[1,2,3-cd]indene-7-carboxylic acid]: 1.01 nM, 0.011 nM, 0.0488 nM and 0.000168 µM.
Consider `Cc1c(Cl)c2c(Cl)c(C)c1-c1c(C3=CCCC3)sc3ncnc(c13)O[C@@H](C(=O)O)Cc1cc(ccc1OCc1ccnc(C3=CC[C@@](F)(COC[C@H]4COCCO4)CC3)n1)OC[C@@H](CN1CCN(C)CC1)O2` [Example 48, (7R,16R)-19,23-dichloro-1-(cyclopent-1-en-1-yl)-10-({2-[(4R)-4-({[(2R)-1,4-dioxan-2-yl]methoxy}methyl)-4-fluorocyclohex-1-en-1-yl]pyrimidin-4-yl}methoxy)-20,22-dimethyl-16-[(4-methylpiperazin-1-yl)methyl]-7,8,15,16-tetrahydro-18,21-etheno-13,9-(metheno)-6,14,17-trioxa-2-thia-3,5-diazacyclononadeca[1,2,3-cd]indene-7-carboxylic acid], for which the inhibition constant (Ki) on GST-MCL-1 (setting [3]) came out at 0.648 nM; on GST-MCL-1 (setting [4]), 0.026 nM. The IC50 in assay [1] stood at 0.641 nM; in assay [2], 0.000593 µM.
Take `Cc1c(Cl)c2c(Cl)c(C)c1-c1c(-c3ccc(F)cc3)sc3ncnc(c13)O[C@@H](C(=O)O)Cc1cc(ccc1OCc1ccnc([C@H]3CC[C@@H](COC[C@H]4COCCO4)CC3)n1)OC[C@@H](CN1CCN(C)CC1)O2` [Example 50, (7R,16R)-19,23-dichloro-10-({2-[(1S,4s)-4-({[(2S)-1,4-dioxan-2-yl]methoxy}methyl)cyclohexyl]pyrimidin-4-yl}methoxy)-1-(4-fluorophenyl)-20,22-dimethyl-16-[(4-methylpiperazin-1-yl)methyl]-7,8,15,16-tetrahydro-18,21-etheno-13,9-(metheno)-6,14,17-trioxa-2-thia-3,5-diazacyclononadeca[1,2,3-cd]indene-7-carboxylic acid]: the figures for the Ki at GST-MCL-1 (setting [3]) and on GST-MCL-1 (setting [4]) were 0.249 nM and 0.022 nM, respectively. Also, the IC50 in assay [1] was 0.249 nM; in assay [2], 0.000255 µM.
As for `COc1ccccc1-c1ccc(OC[C@@H]2COCCO2)c(COc2ccc3cc2C[C@H](C(=O)O)Oc2ncnc4sc(-c5ccc(F)cc5)c(c24)-c2c(C)c(Cl)c(c(Cl)c2C)O[C@H](CN2CCN(C)CC2)CO3)n1` [Example 53, (7R,16R)-19,23-dichloro-10-{[3-{[(2S)-1,4-dioxan-2-yl]methoxy}-6-(2-methoxyphenyl)pyridin-2-yl]methoxy}-1-(4-fluorophenyl)-20,22-dimethyl-16-[(4-methylpiperazin-1-yl)methyl]-7,8,15,16-tetrahydro-18,21-etheno-9,13-(metheno)-6,14,17-trioxa-2-thia-3,5-diazacyclononadeca[1,2,3-cd]indene-7-carboxylic acid], the Ki on GST-MCL-1 (setting [3]) is 114 nM; at GST-MCL-1 (setting [4]) it was 13.7 nM. For the same compound, the IC50 in assay [1] is 311 nM; in assay [2], over 1 µM.
As to `Cc1c(Cl)c2c(Cl)c(C)c1-c1c(-c3ccc(F)cc3)sc3ncnc(c13)O[C@@H](C(=O)O)Cc1cc(ccc1OCc1ccnc([C@H]3CC[C@@H](OCC4COCCO4)CC3)n1)OC[C@@H](CN1CCN(C)CC1)O2` (stereo partly drawn) [Example 15, (7R,16R)-19,23-dichloro-10-[(2-{(1s,4s)-4-[(1,4-dioxan-2-yl)methoxy]cyclohexyl}pyrimidin-4-yl)methoxy]-1-(4-fluorophenyl)-20,22-dimethyl-16-[(4-methylpiperazin-1-yl)methyl]-7,8,15,16-tetrahydro-18,21-etheno-13,9-(metheno)-6,14,17-trioxa-2-thia-3,5-diazacyclononadeca[1,2,3-cd]indene-7-carboxylic acid], the results for the Ki at GST-MCL-1 (setting [3]) and at GST-MCL-1 (setting [4]) were 0.15 nM and 0.013 nM, respectively. Besides, the figures for the IC50 in assay [1] and in assay [2] were 0.156 nM and 0.000294 µM, respectively.
Regarding `COc1ccccc1-c1nccc(COc2ccc3cc2C[C@H](C(=O)O)Oc2ncnc4sc(C5=COCCO5)c(c24)-c2c(C)c(Cl)c(c(Cl)c2C)O[C@H](CN2CCN(C)CC2)CO3)n1` [Example 27, (7R,16R)-19,23-dichloro-1-(5,6-dihydro-1,4-dioxin-2-yl)-10-{[2-(2-methoxyphenyl)pyrimidin-4-yl]methoxy}-20,22-dimethyl-16-[(4-methylpiperazin-1-yl)methyl]-7,8,15,16-tetrahydro-18,21-etheno-13,9-(metheno)-6,14,17-trioxa-2-thia-3,5-diazacyclononadeca[1,2,3-cd]indene-7-carboxylic acid], the Ki is 0.02 nM on GST-MCL-1 (setting [3]) and 0.008 nM at GST-MCL-1 (setting [4]). The IC50 came to 0.435 nM in assay [1] and 0.0015 µM in assay [2].
For `Cc1c(Cl)c2c(Cl)c(C)c1-c1c(-c3ccc(F)cc3)sc3ncnc(c13)O[C@@H](C(=O)O)Cc1cc(ccc1OCc1ccnc([C@H]3CC[C@@](F)(COC[C@@H]4COCCO4)CC3)n1)OC[C@@H](CN1CCN(C)CC1)O2` [Example 46, (7R,16R)-19,23-dichloro-10-({2-[(1S,4r)-4-({[(2S)-1,4-dioxan-2-yl]methoxy}methyl)-4-fluorocyclohexyl]pyrimidin-4-yl}methoxy)-1-(4-fluorophenyl)-20,22-dimethyl-16-[(4-methylpiperazin-1-yl)methyl]-7,8,15,16-tetrahydro-18,21-etheno-13,9-(metheno)-6,14,17-trioxa-2-thia-3,5-diazacyclononadeca[1,2,3-cd]indene-7-carboxylic acid], the Ki at GST-MCL-1 (setting [3]) stood at 0.24 nM; on GST-MCL-1 (setting [4]) it was 0.022 nM. Further, the IC50 in assay [1] worked out at 0.579 nM; in assay [2], 0.000418 µM.
The matching figures for `Cc1c(Cl)c2c(Cl)c(C)c1-c1c(-c3ccc(F)cc3)sc3ncnc(c13)O[C@@H](C(=O)O)Cc1cc(ccc1OCc1ccnc(N3CCC(OC[C@H]4COCCO4)CC3)n1)OC[C@@H](CN1CCN(C)CC1)O2` [Example 10, (7R,16R)-19,23-dichloro-10-{[2-(4-{[(2R)-1,4-dioxan-2-yl]methoxy}piperidin-1-yl)pyrimidin-4-yl]methoxy}-1-(4-fluorophenyl)-20,22-dimethyl-16-[(4-methylpiperazin-1-yl)methyl]-7,8,15,16-tetrahydro-18,21-etheno-13,9-(metheno)-6,14,17-trioxa-2-thia-3,5-diazacyclononadeca[1,2,3-cd]indene-7-carboxylic acid]: 3.07 nM, 0.346 nM, 0.502 nM and 0.00217 µM.
